Measurements reported in the supplement of paper PMC10307832.

What was measured:
Experiment in all cases: relative viability (nuclei count vs DMSO), 5 days (fraction); higher = more cells survive
[1] = compound: CCc1cnn2c(NCc3ccc[n+]([O-])c3)cc(N3CCCC[C@H]3CCO)nc12 [Dinaciclib] + Cc1nc(NC(=O)N2CCC[C@H]2C(N)=O)sc1-c1ccnc(C(C)(C)C(F)(F)F)c1 [Alpelisib] (partner 2 µM)
In short: (§1)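 The day after seeding in 1536-well plates, lung cancer cell lines were treated by pin tool with a single drug, or with a fixed anchor-drug dose together with five library-drug doses (not always all listed) in √10 steps. After 5 days, a combined fix-and-stain solution (final 0.05% Triton X-100, 1% formaldehyde, 1 ug/ml Hoechst) was added. Nuclei counted on 4× images gave relative viability as treated counts over vehicle counts, reported as the median of duplicate plates.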

[2] = compound: CCc1cnn2c(NCc3ccc[n+]([O-])c3)cc(N3CCCC[C@H]3CCO)nc12 [Dinaciclib] + COc1cc2c(Oc3ccc(NC(=O)C4(C(=O)Nc5ccc(F)cc5)CC4)cc3F)ccnc2cc1OCCCN1CCOCC1 [Foretinib] (partner 0.25 µM)
In short: as §1

[3] = compound: CCc1cnn2c(NCc3ccc[n+]([O-])c3)cc(N3CCCC[C@H]3CCO)nc12 [Dinaciclib] + C[C@@H](Oc1cc(-c2cnn(C3CCNCC3)c2)cnc1N)c1c(Cl)ccc(F)c1Cl [Crizotinib] (partner 1 µM)
In short: as §1

[4] = compound: CCc1cnn2c(NCc3ccc[n+]([O-])c3)cc(N3CCCC[C@H]3CCO)nc12 [Dinaciclib] + COc1cccc2cc(-c3nc([C@H]4CC[C@H](C(=O)O)CC4)n4ncnc(N)c34)[nH]c12 [OSI-027] (partner 0.5 µM)
In short: as §1

[5] = compound: CCc1cnn2c(NCc3ccc[n+]([O-])c3)cc(N3CCCC[C@H]3CCO)nc12 [Dinaciclib] + N=C(N)NC(=N)NCCc1ccccc1 [Phenformin] (partner 250 µM)
In short: as §1

Cell Line | relative viability ([1]; first compound 0.009487 µM) | relative viability ([1]; first compound 0.03 µM) | relative viability ([1]; first compound 0.09487 µM) | relative viability ([1]; first compound 0.3 µM) | relative viability ([2]; first compound 0.009487 µM) | relative viability ([2]; first compound 0.03 µM) | relative viability ([2]; first compound 0.09487 µM) | relative viability ([2]; first compound 0.3 µM) | relative viability ([3]; first compound 0.009487 µM) | relative viability ([3]; first compound 0.03 µM) | relative viability ([3]; first compound 0.09487 µM) | relative viability ([3]; first compound 0.3 µM) | relative viability ([4]; first compound 0.009487 µM) | relative viability ([4]; first compound 0.03 µM) | relative viability ([4]; first compound 0.09487 µM) | relative viability ([4]; first compound 0.3 µM) | relative viability ([5]; first compound 0.009487 µM) | relative viability ([5]; first compound 0.03 µM) | relative viability ([5]; first compound 0.09487 µM) | relative viability ([5]; first compound 0.3 µM)
NCI-H2170 | 0.646 | 0.166 | 0.162 | 0.198 | 0.901 | 0.281 | 0.189 | 0.194 | 0.86 | 0.188 | 0.157 | 0.181 | 0.741 | 0.156 | 0.152 | 0.14 | 0.415 | 0.133 | 0.119 | 0.152
NCI-H2228 | 0.548 | 0.122 | 0.108 | 0.119 | 0.87 | 0.36 | 0.104 | 0.11 | 0.526 | 0.178 | 0.135 | 0.103 | 0.522 | 0.167 | 0.0767 | 0.124 | 0.256 | 0.11 | 0.0988 | 0.103
NCI-H2347 | 0.986 | 0.324 | 0.274 | 0.222 | 0.824 | 0.248 | 0.298 | 0.261 | 0.734 | 0.146 | 0.202 | 0.156 | 0.437 | 0.204 | 0.144 | 0.151 | 0.468 | 0.131 | 0.193 | 0.209
NCI-H2405 | 0.876 | 0.22 | 0.208 | 0.184 | 1.02 | 0.256 | 0.248 | 0.238 | 0.772 | 0.224 | 0.201 | 0.209 | 0.625 | 0.409 | 0.226 | 0.198 | 0.417 | 0.253 | 0.223 | 0.186
NCI-H3122 | 0.489 | 0.157 | 0.119 | 0.15 | 1.02 | 0.131 | 0.0904 | 0.0928 | 0.253 | 0.127 | 0.145 | 0.13 | 0.407 | 0.108 | 0.0984 | 0.114 | 0.172 | 0.101 | 0.103 | 0.106
PC-3 [JPC-3] | 0.99 | 0.899 | 0.362 | 0.21 | 1.09 | 0.93 | 0.254 | 0.224 | 0.953 | 0.799 | 0.232 | 0.198 | 0.764 | 0.693 | 0.249 | 0.209 | 0.492 | 0.476 | 0.326 | 0.204
PC-14 | 0.947 | 0.515 | 0.0838 | 0.0509 | 0.841 | 0.543 | 0.0986 | 0.0886 | 0.651 | 0.241 | 0.0877 | 0.0668 | 0.66 | 0.0841 | 0.0393 | 0.0423 | 0.279 | 0.0631 | 0.0459 | 0.0379
RERF-LC-KJ | 0.826 | 0.41 | 0.154 | 0.161 | 0.902 | 0.635 | 0.15 | 0.101 | 0.885 | 0.179 | 0.131 | 0.122 | 0.461 | 0.177 | 0.185 | 0.182 | 0.35 | 0.223 | 0.224 | 0.185
SK-LU-1 | 0.637 | 0.197 | 0.18 | 0.194 | 0.579 | 0.158 | 0.139 | 0.121 | 0.602 | 0.207 | 0.19 | 0.204 | 0.425 | 0.116 | 0.145 | 0.112 | 0.394 | 0.11 | 0.133 | 0.129
SK-MES-1 | 0.757 | 0.618 | 0.119 | 0.117 | 0.962 | 0.189 | 0.135 | 0.137 | 0.969 | 0.18 | 0.191 | 0.155 | 0.559 | 0.13 | 0.136 | 0.149 | 0.533 | 0.171 | 0.147 | 0.153
SW 1573 | 0.659 | 0.432 | 0.0931 | 0.106 | 0.827 | 0.526 | 0.0711 | 0.0971 | 0.608 | 0.0718 | 0.066 | 0.0807 | 0.372 | 0.0612 | 0.0644 | 0.0645 | 0.303 | 0.0685 | 0.077 | 0.0659
UMC-11 | 0.285 | 0.147 | 0.135 | 0.158 | 0.277 | 0.189 | 0.166 | 0.19 | 0.157 | 0.0965 | 0.094 | 0.0987 | 0.267 | 0.203 | 0.177 | 0.153 | 0.214 | 0.197 | 0.192 | 0.185
